These results are taken from patent US5173493A, “Pyridoindole derivatives and processes for preparation thereof” (Fujisawa Pharmaceutical Company, Ltd., priority 1988, dated 1992).

Read-outs that look alike come from different tables or passages of the source.

In one test the test system is Benzold-Jarisch reflex. Description: Inhibition of Benzold-Jarisch reflex. The class given is in vivo, Male Sprague-Dawley rats. Conditions: Rattus norvegicus, 5 min, iv.
Test [1] has as its system Cisplatin-induced vomiting. Put plainly: Inhibition of Cisplatin-induced vomiting. The class given is in vivo, female beagles. Conditions: Canis lupus familiaris; intravenously twice, 10 minutes prior to and 90 minutes after Cisplatin (3.2 mg/kg, iv); observed up to 5 hours. The method, then:
(B) Inhibition of Cisplatin-induced vomiting
Nonfasted female beagles weighing about 10 kg were administered test compound or saline intravenously twice 10 minutes prior to and 90 minutes after Cisplatin dosing (3.2 mg/kg, iv).
Cisplatin was dissolved in 0.9% warm saline with a final concentration of 3 mg/ml and used immediately.

The mark [2] stands for this setting: inhibition of bradycardic response to 2-methyl-5-hydroxytryptamine (32 μg/kg, iv), anesthetized rats, read-out: ED50.

Protocol for Benzold-Jarisch reflex: (A) Inhibition of Benzold-Jarisch reflex
Male Sprague-Dawley rats weighing 260-350 g were anesthetized intraperitoneally with 1.25 g/kg urethane.
Blood pressure and heart rate were monitored continuously from the left common carotid artery with a pressure transducer. A right femoral vein was connulated for the intravenous injection (iv) of drugs. The trachea was also connulated to ease the respiration.
Rats were given a rapid bolus injection of 2-methyl-5-hydroxytryptamine (32 μg/kg, iv) to establish the control bradycardic response. Once the heart rate returned to base line, the rats were given the test compound (iv), followed by 5-minutes interval and another bolus injection of 2-methyl-5-hydroxytryptamine (32 μg/kg, iv).

As for `Cc1[nH]cnc1CC1CCc2c(C)c3ccccc3n2C1=O.Cl` (single isomer, unassigned; (+)) [Compound 3, (+)-8,9-Dihydro-10-methyl-7-[(5-methyl-1H-imidazol-4-yl)methyl]pyrido[1,2-a]indol-6(7H)-one hydrochloride], the results for the median effective dose (ED50) (in the test on Benzold-Jarisch reflex (setting [2]); in test [1]) were 0.9 µg/kg and 1.1 µg/kg, respectively.

Turning to `Cc1[nH]cnc1C(O)C1CCc2c(C)c3ccccc3n2C1=O.O=C(O)/C=C\C(=O)O` (single isomer, unassigned; isomer b) [Compound 1, 8,9-Dihydro-7-[(hydroxy)(5-methyl-1H-imidazol-4-yl)methyl]-10-methylpyrido[1,2-a]indol-6(7H)-one maleate (isomer B)], the median effective dose (ED50) in the test on Benzold-Jarisch reflex (setting [2]) turned out to be 5.9 µg/kg.

For the compound `Cc1c2n(c3ccccc13)C(=O)C(Cc1c[nH]cn1)CC2` (centres unmarked) [Compound 2, 8,9-Dihydro-7-[(1H-imidazol-4-yl)methyl]-10-methylpyrido[1,2-a]indol-6(7H)-one], the ED50 in the test on Benzold-Jarisch reflex is 1.8 µg/kg.

Consider `Cc1[nH]cnc1CC1(C)CCc2c(C)c3ccccc3n2C1=O` (centres unmarked) [Compound 4, 8,9-Dihydro-7,10-dimethyl-7-[(5-methyl-1H-imidazol-4-yl)methyl]pyrido[1,2-a]indol-6(7H)-one], for which, in the test on Benzold-Jarisch reflex (setting [2]), the ED50 was 1.1 µg/kg.

Broadly, the ED50 is the dose that gives a 50% effect, or the effect in half of the subjects.
